Laboratory results taken from patent publication US10407467B2, “Polymyxin derivatives and their use in combination therapy together with different antibiotics” (priority 2013, dated 2019).
Bridge positions count the residues as written; N and C are the ends. Square brackets hold non-standard residues; d marks the D form. Peptide text beside a SMILES is read from it. ξ: configuration not given here. Thr(3ξ) = CC(O)[C@H](N)C(=O)O; Dab = NCC[C@H](N)C(=O)O; Ahx = NCCCCCC(=O)O

Key:
Format in all cases: cell-based
Acinetobacter baumannii [1] = test: MIC, compound in combination with a second agent (broth microdilution); conditions: 1:1 (wt:wt) combination with Rifampicin, MIC = total drug concentration
Summary of the method: (§1)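 Compound and second agent (e.g. rifampicin) were combined 1:1 w/w, compound weighed as its TFA or sulphate salt. Inoculum was a direct colony suspension from 18-24 hour Mueller-Hinton agar at 0.5 McFarland. MIC is the total drug concentration; lower of duplicates reported, modal value when tested repeatedly.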

Klebsiella pneumoniae [2] = test: as above; conditions: 1:1 (wt:wt) combination with Rifampicin, MIC = total drug concentration
Summary of the method: as §1

Pseudomonas aeruginosa [3] = test: as above; conditions: 1:1 (wt:wt) combination with Rifampicin, MIC = total drug concentration
Summary of the method: as §1

Escherichia coli [4] = test: as above; conditions: 1:1 (wt:wt) combination with Rifampicin, MIC = total drug concentration
Summary of the method: as §1

Acinetobacter baumannii [5] = test: MIC, sole activity (no second agent); conditions: in the absence of Rifampicin
Summary of the method: (§2)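 Inoculum: direct colony suspension (18-24 h MH agar), 0.5 McFarland. Medium: cation-adjusted MHB. Up to 4 strains/species; reported relative to Polymyxin B.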

Klebsiella pneumoniae [6] = test: MIC, sole activity (no second agent); conditions: in the absence of Rifampicin; strain ATCC 4352
Summary of the method: as §2

Pseudomonas aeruginosa [7] = test: MIC, sole activity (no second agent); conditions: in the absence of Rifampicin
Summary of the method: as §2

Escherichia coli [8] = test: MIC, sole activity (no second agent); conditions: in the absence of Rifampicin
Summary of the method: as §2

`CC(C)C[C@@H]1NC(=O)[C@@H](Cc2ccccc2)NC(=O)[C@H](CCN)NC(=O)[C@@H](NC(=O)[C@H](CCN)NC(=O)[C@@H](NC(=O)CCCCCN)C(C)O)CCNC(=O)[C@H](C(C)O)NC(=O)[C@H](CCN)NC(=O)[C@H](CCN)NC1=O` (stereo partly shown) [Example 2, 6-Aminohexanoyl polymyxin B nonapeptide] (H-[Ahx][Thr(3ξ)][Dab][Dab][Dab][dF]L[Dab][Dab][Thr(3ξ)]; lactam 4-C) was tested, and the “MIC A. baumannii ATCC BAA-747” value (Acinetobacter baumannii [1]; strain ATCC BAA-747) was at most 0.06 micrograms/mL, the “MIC A. baumannii CCUG57249” value (Acinetobacter baumannii [1]; strain CCUG57249) was at most 0.06 micrograms/mL and the “MIC A. baumannii NCTC 13423” value (Acinetobacter baumannii [1]; strain NCTC 13423) was at most 0.06 micrograms/mL. The “MIC A. baumannii NCTC 13424” value (Acinetobacter baumannii [1]; strain NCTC 13424) was at most 0.06 micrograms/mL, the “MIC K. pneumoniae ATCC-BAA-2146” value (Klebsiella pneumoniae [2]; strain ATCC-BAA-2146) was 0.5 micrograms/mL and the “MIC K. pneumoniae CCUG-59348” value (Klebsiella pneumoniae [2]; strain CCUG-59348) was 4 micrograms/mL. For the same molecule, the “MIC K. pneumoniae NCTC 13438” value (Klebsiella pneumoniae [2]; strain NCTC 13438) was 0.5 micrograms/mL, the “MIC P. aeruginosa ATCC CRM-9027” value (Pseudomonas aeruginosa [3]; strain ATCC CRM-9027) was 0.25 micrograms/mL and the “MIC P. aeruginosa ATCC-47” value (Pseudomonas aeruginosa [3]; strain ATCC-47) was 0.25 micrograms/mL. For the same molecule, the “MIC P. aeruginosa CCUG 59626” value (Pseudomonas aeruginosa [3]; strain CCUG 59626) was 0.125 micrograms/mL, the “MIC E. coli ATCC25922” value (Escherichia coli [4]; strain ATCC25922) was 0.125 micrograms/mL and the “MIC E. coli NCTC9001” value (Escherichia coli [4]; strain NCTC9001) was 0.5 micrograms/mL. For the same molecule, the “MIC A. baumannii ATCCBAA-747” value (Acinetobacter baumannii [5]; strain ATCCBAA-747) was 8 micrograms/mL, the “MIC A. baumannii NCTC 13423” value (Acinetobacter baumannii [5]; strain NCTC13423) was 0.5 micrograms/mL and the “MIC K. pneumoniae ATCC 4352” value (Klebsiella pneumoniae [6]) was 0.5 micrograms/mL. The “MIC P. aeruginosa ATCC 27853” value (Pseudomonas aeruginosa [7]; strain ATCC27853) was 0.5 micrograms/mL, the “MIC P. aeruginosa ATCCCRM-9027” value (Pseudomonas aeruginosa [7]; strain ATCCCRM-9027) was 0.25 micrograms/mL and the “MIC E. coli ATCC25922” value (Escherichia coli [8]; strain ATCC25922) was 2 micrograms/mL. For the same molecule, the “MIC E. coli NCTC9001” value (Escherichia coli [8]; strain NCTC9001) was 8 micrograms/mL.
